In US20230085307A1, “PYRIDAZINONE COMPOUND AND HERBICIDE” (NISSAN CHEMICAL CORPORATION, priority 2019, published 2023):

Experiments:
Japanese bulrush [1] = assay: Test Example 1: herbicidal activity, application before weed generation under submerged conditions (Table 16, symbol B); assay type: in vivo, Japanese bulrush (Schoenoplectus juncoides); conditions: 320 g/ha applied herbicide
In short: (§1)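 Alluvial soil was flooded to 4 cm depth, weed seeds were sown mixed and 2.5-leaf rice seedlings were transplanted. On sowing day, the compound's emulsion, diluted in water to a set dose, was applied to the water surface. Plants grew at 25–30 °C and were scored 0–5 after three weeks.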

oval-leafed pondweed [2] = assay: Test Example 1: herbicidal activity, application before weed generation under submerged conditions (Table 16, symbol C); assay type: in vivo, oval-leafed pondweed (Monochoria vaginalis); conditions: 320 g/ha applied herbicide
In short: as §1

Japanese bulrush [3] = assay: Test Example 2: herbicidal activity, application during weed generation under submerged conditions (Table 17, symbol B); assay type: in vivo, Japanese bulrush (Schoenoplectus juncoides); conditions: AAH 320 g/ha; application during weed generation, submerged conditions
In short: (§2)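 In this pot test, flooded alluvial soil (water depth 4 cm) holds all three species sown as a mixture. Once seedlings have one to two leaves, the compound's emulsion, thinned with water to the intended dose, is poured on the water; grading follows after three weeks on the earlier criteria.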

oval-leafed pondweed [4] = assay: Test Example 2: herbicidal activity, application during weed generation under submerged conditions (Table 17, symbol C); assay type: in vivo, oval-leafed pondweed (Monochoria vaginalis); conditions: AAH 320 g/ha; application during weed generation, submerged conditions
In short: as §2

rice flat sedge = assay: Test Example 3: herbicidal effect by foliage application, Wagner pot (Table 18, symbol E); assay type: in vivo, rice flat sedge (Cyperus iria); conditions: amount of applied herbicide 320 g/ha
In short: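 Plants were sown in alluvial soil held under 0.1–0.5 cm standing water and grown 14 days in a greenhouse at 25–30 °C. An emulsifiable formulation, water-diluted to the set dose, was then sprayed onto the foliage, and effects were scored three weeks later using previously defined criteria.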

green foxtail [5] = assay: Test Example 4: herbicidal effect by soil treatment (Table 19, symbol G); assay type: in vivo, green foxtail (Setaria viridis); conditions: amount of applied herbicide 320 g/ha
In short: (§3)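 Herbicidal effect was rated 3 weeks after treatment, using the scoring criteria of an earlier test. The compound, formulated as an emulsion and diluted in water to a set herbicide amount, had been sprayed uniformly on soil over freshly sown seeds. Growth took place in a greenhouse at 25° C. to 30° C.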

wild oat = assay: Test Example 4: herbicidal effect by soil treatment (Table 19, symbol I); assay type: in vivo, wild oat (Avena fatua); conditions: amount of applied herbicide 320 g/ha
In short: as §3

Italian ryegrass = assay: Test Example 4: herbicidal effect by soil treatment (Table 19, symbol K); assay type: in vivo, Italian ryegrass (Lolium multiflorum); conditions: amount of applied herbicide 320 g/ha
In short: as §3

windgrass [6] = assay: Test Example 4: herbicidal effect by soil treatment (Table 19, symbol L); assay type: in vivo, windgrass (Apera spica-venti); conditions: amount of applied herbicide 320 g/ha
In short: as §3

velvetleaf = assay: Test Example 4: herbicidal effect by soil treatment (Table 19, symbol M); assay type: in vivo, velvetleaf (Abutilon theophrasti); conditions: amount of applied herbicide 320 g/ha
In short: as §3

persian speedwell = assay: Test Example 4: herbicidal effect by soil treatment (Table 19, symbol R); assay type: in vivo, Persian speedwell (Veronica persica); conditions: amount of applied herbicide 320 g/ha
In short: as §3

southern crabgrass = assay: Test Example 5: herbicidal effect by foliage application, plastic box (Table 20, symbol F); assay type: in vivo, southern crabgrass (Digitaria ciliaris); conditions: foliage application, 320 g/ha, evaluated three weeks after application
In short: (§4)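 Foliar spray test: emulsion formulation diluted in water to a set application rate, sprayed onto 14-day-old plants raised in diluvial soil at 25° C to 30° C under glass. Both herbicidal effect and crop effect rated visually three weeks later.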

green foxtail [7] = assay: Test Example 5: herbicidal effect by foliage application, plastic box (Table 20, symbol G); assay type: in vivo, green foxtail (Setaria viridis); conditions: foliage application, 320 g/ha, evaluated three weeks after application
In short: as §4

windgrass [8] = assay: Test Example 5: herbicidal effect by foliage application, plastic box (Table 20, symbol L); assay type: in vivo, windgrass (Apera spica-venti); conditions: foliage application, 320 g/ha, evaluated three weeks after application
In short: as §4

lambsquarters = assay: Test Example 5: herbicidal effect by foliage application, plastic box (Table 20, symbol O); assay type: in vivo, lambsquarters (Chenopodium album); conditions: foliage application, 320 g/ha, evaluated three weeks after application
In short: as §4

chickweed = assay: Test Example 5: herbicidal effect by foliage application, plastic box (Table 20, symbol P); assay type: in vivo, common chickweed (Stellaria media); conditions: foliage application, 320 g/ha, evaluated three weeks after application
In short: as §4

| SMILES | Herbicidal effect on B: Japanese bulrush (grade 0-5) (Japanese bulrush [1]) | Herbicidal effect on C: oval-leafed pondweed (grade 0-5) (oval-leafed pondweed [2]) | herbicidal effect rating, B: Japanese bulrush (Japanese bulrush [3]) | herbicidal effect rating, C: oval-leafed pondweed (oval-leafed pondweed [4]) | herbicidal effect on E: rice flat sedge (rice flat sedge) | G: green foxtail, herbicidal effect rating (green foxtail [5]) | I: wild oat, herbicidal effect rating (wild oat) | K: Italian ryegrass, herbicidal effect rating (Italian ryegrass) | L: windgrass, herbicidal effect rating (windgrass [6]) | M: velvetleaf, herbicidal effect rating (velvetleaf) | R: persian speedwell, herbicidal effect rating (persian speedwell) | herbicidal effect on F: southern crabgrass (southern crabgrass) | herbicidal effect on G: green foxtail (green foxtail [7]) | herbicidal effect on L: windgrass (windgrass [8]) | herbicidal effect on O: lambsquarters (lambsquarters) | herbicidal effect on F: southern crabgrass (criteria 0-5) (southern crabgrass) | herbicidal effect on G: green foxtail (criteria 0-5) (green foxtail [7]) | herbicidal effect on L: windgrass (criteria 0-5) (windgrass [8]) | herbicidal effect on O: lambsquarters (criteria 0-5) (lambsquarters) | herbicidal effect on P: chickweed (criteria 0-5) (chickweed) | other results |
| --- | --- | --- | --- | --- | --- | --- | --- | --- | --- | --- | --- | --- | --- | --- | --- | --- | --- | --- | --- | --- | --- |
| Cc1nn(C)c(=O)c(-c2c(-c3ccc(C(F)(F)F)cc3)sc3ccc(Cl)cc23)c1O [2-111] | 3 (Herbicidal rate of 40% or more and less than 70%) | 0 (Herbicidal rate of 5% or less (almost no effect)) | 1 (Herbicidal rate of 5% or more and less than 20%) | 0 (Herbicidal rate of 5% or less (almost no effect)) | 3 (Herbicidal rate of 40% or more and less than 70%) | 0 (Herbicidal rate of 5% or less (almost no effect)) | 0 (Herbicidal rate of 5% or less (almost no effect)) | 3 (Herbicidal rate of 40% or more and less than 70%) | 5 (Herbicidal rate of 90% or more (almost completely withered)) | 0 (Herbicidal rate of 5% or less (almost no effect)) | 5 (Herbicidal rate of 90% or more (almost completely withered)) | 0 (Herbicidal rate of 5% or less (almost no effect)) | 0 (Herbicidal rate of 5% or less (almost no effect)) | 5 (Herbicidal rate of 90% or more (almost completely withered)) | 3 (Herbicidal rate of 40% or more and less than 70%) |  |  |  |  |  | herbicidal effect on P: chickweed (chickweed): 5 (Herbicidal rate of 90% or more (almost completely withered)) |
| CCCC(=O)Oc1c(C)nn(C)c(=O)c1-c1c(-c2ccccc2OC)sc2ccc(C)cc12 [2-139] | 3 (Herbicidal rate of 40% or more and less than 70%) | 1 (Herbicidal rate of 5% or more and less than 20%) | 3 (Herbicidal rate of 40% or more and less than 70%) | 0 (Herbicidal rate of 5% or less (almost no effect)) | 4 (Herbicidal rate of 70% or more and less than 90%) | 0 (Herbicidal rate of 5% or less (almost no effect)) | 0 (Herbicidal rate of 5% or less (almost no effect)) | 1 (Herbicidal rate of 5% or more and less than 20%) | 0 (Herbicidal rate of 5% or less (almost no effect)) | 0 (Herbicidal rate of 5% or less (almost no effect)) | 4 (Herbicidal rate of 70% or more and less than 90%) | 3 (Herbicidal rate of 40% or more and less than 70%) | 3 (Herbicidal rate of 40% or more and less than 70%) | 0 (Herbicidal rate of 5% or less (almost no effect)) | 3 (Herbicidal rate of 40% or more and less than 70%) |  |  |  |  |  | herbicidal effect on P: chickweed (chickweed): 5 (Herbicidal rate of 90% or more (almost completely withered)) |
| C=Cc1ccc2sc(-c3ccccc3OC)c(-c3c(O)c(C)nn(C)c3=O)c2c1 [2-185] | 5 (Herbicidal rate of 90% or more (almost completely withered)) | 5 (Herbicidal rate of 90% or more (almost completely withered)) | 0 (Herbicidal rate of 5% or less (almost no effect)) | 0 (Herbicidal rate of 5% or less (almost no effect)) | 2 (Herbicidal rate of 20% or more and less than 40%) | 0 (Herbicidal rate of 5% or less (almost no effect)) | 0 (Herbicidal rate of 5% or less (almost no effect)) | 0 (Herbicidal rate of 5% or less (almost no effect)) | 0 (Herbicidal rate of 5% or less (almost no effect)) | 0 (Herbicidal rate of 5% or less (almost no effect)) | 0 (Herbicidal rate of 5% or less (almost no effect)) |  |  |  |  | 2 (Herbicidal rate of 20% or more and less than 40%) | 3 (Herbicidal rate of 40% or more and less than 70%) | 1 (Herbicidal rate of 5% or more and less than 20%) | 4 (Herbicidal rate of 70% or more and less than 90%) | 5 (Herbicidal rate of 90% or more (almost completely withered)) |  |
| Cc1nn(C)c(=O)c(-c2c(-c3ccccc3)sc3ccc(F)cc23)c1O [2-197] | 3 (Herbicidal rate of 40% or more and less than 70%) | 3 (Herbicidal rate of 40% or more and less than 70%) | 3 (Herbicidal rate of 40% or more and less than 70%) | 4 (Herbicidal rate of 70% or more and less than 90%) | 5 (Herbicidal rate of 90% or more (almost completely withered)) | 4 (Herbicidal rate of 70% or more and less than 90%) | 1 (Herbicidal rate of 5% or more and less than 20%) | 4 (Herbicidal rate of 70% or more and less than 90%) | 1 (Herbicidal rate of 5% or more and less than 20%) | 4 (Herbicidal rate of 70% or more and less than 90%) | 3 (Herbicidal rate of 40% or more and less than 70%) |  |  |  |  | 5 (Herbicidal rate of 90% or more (almost completely withered)) | 5 (Herbicidal rate of 90% or more (almost completely withered)) | 4 (Herbicidal rate of 70% or more and less than 90%) | 5 (Herbicidal rate of 90% or more (almost completely withered)) | 5 (Herbicidal rate of 90% or more (almost completely withered)) |  |
| CCCC(=O)Oc1c(C)nn(C)c(=O)c1-c1c(-c2ccccc2)sc2ccc(F)cc12 [2-198] | 3 (Herbicidal rate of 40% or more and less than 70%) | 3 (Herbicidal rate of 40% or more and less than 70%) | 3 (Herbicidal rate of 40% or more and less than 70%) | 4 (Herbicidal rate of 70% or more and less than 90%) | 5 (Herbicidal rate of 90% or more (almost completely withered)) | 5 (Herbicidal rate of 90% or more (almost completely withered)) | 4 (Herbicidal rate of 70% or more and less than 90%) | 4 (Herbicidal rate of 70% or more and less than 90%) | 3 (Herbicidal rate of 40% or more and less than 70%) | 3 (Herbicidal rate of 40% or more and less than 70%) | 4 (Herbicidal rate of 70% or more and less than 90%) |  |  |  |  | 5 (Herbicidal rate of 90% or more (almost completely withered)) | 4 (Herbicidal rate of 70% or more and less than 90%) | 4 (Herbicidal rate of 70% or more and less than 90%) | 5 (Herbicidal rate of 90% or more (almost completely withered)) | 5 (Herbicidal rate of 90% or more (almost completely withered)) |  |
